What was measured:
[1] = Solubility in phosphate buffered saline; format: physicochemical; conditions: PBS with 1% DMSO
Text: Fig. 2 (A) Chemical structures of the investigated naphthoquinone-based metal(arenes) in this study.

[2] = Stability study by UV-Vis spectroscopy in PBS (1% DMSO); format: physicochemical; conditions: 40 μM 1a/2a, 80 μM 1b/2b
Description: Stability Study by UV-Vis Spectroscopy
All four compounds were freshly diluted in PBS (1% DMSO) from a DMSO stock solution at […]
80 µM. The stability of the compounds was monitored in a UV-Vis spectrophotometer (Perkin Elmer lambda 35 photometer) over 96 h by acquiring an UV-Vis spectrum every 30 mins. The percentage of the remaining intact compound was calculated by the ratio of the maximum absorbance of the tridentate complexes’ characteristic absorption band around 350– 370 nm after a given timepoint (A) compared to the one directly after dilution (A0). […]

SW480 cancer cells = assay: Proteome profiling of compound-treated SW480 cancer cells (24 h, approx. IC50, CYT and NE fractions); format: cell-based, human
Description: To gain insight into potential modes of action and derive structure–activity relationships on a molecular level, proteomic profiling experiments were carried out based on label-free quantification (LFQ) by nano-liquid chromatography tandem mass spectrometry (nLC-MS/MS). […] Six replicates were used per condition. The perturbations were evaluated at subcellular resolution by fractionating cells into cytoplasmic (CYT) and nuclear (NE) protein fractions. Those have been separately proteolytically digested and analysed (Fig. 3A). The perturbations with the 3-Et-NQ and 3-Morph-NQ complexes were performed against their respective solvent-treated controls (CON), yielding a total of 72 samples. […] Statistical significance of individual protein regulations was calculated by multiple testing-corrected P-values based on 5% false discovery rate (FDR = 0.05 and S0 = 0.1).
The position of each group represents the summed fold-changes of the individual proteins in the group according to the subcellular space, i.e., CYT and NE fractions, while the size represents the number of proteins in each group. […]
Proteome profiling of compound-treated SW480 cancer cells […]
cells per well and left to adhere in complete cell culture medium. After 24 h, the medium was exchanged with fresh complete medium (DMSO mock control) or fresh medium containing […]
solution in DMSO, respectively) and incubated for another 24 h. Each condition was carried out in hexuplicates. The cells were processed according to a nucleocytoplasmic fractionation protocol as previously described.3 All steps were performed on ice. The medium was removed, and the cells were washed twice with 1×PBS (phosphate buffered saline, 3 mL). Then, PBS was thoroughly removed. Isotonic lysis buffer (10 mM HEPES, 10 mM NaCl, 3.5 mM MgCl2, 1 mM EGTA, 0.25 M Sucrose, 0.5% Triton X-100) containing protease inhibitors (1% PMSF, Sigma, and 1% protease and phosphatase inhibitor cocktail, Roche) was added to the flasks, the cells were scraped off and transferred into labelled 15 mL Falcon tubes. The cellular membrane was ruptured using shear stress by pressing the cell suspension through a syringe 9–12 times. Membrane rupture with intact nuclei was monitored under a microscope. After centrifugation (960 g, 5 min), the supernatant containing the cytoplasmic (CYT) proteins was transferred into new tubes containing ice-cold ethanol (1 : 5, HPLC grade) and precipitated […]
overnight at –20 °C. The pellet containing the nuclei was incubated with a hypertonic solution (10 mM Tris-HCl, 1 mM EDTA and 0.5 M NaCl) and subsequently diluted 1:10 with NP-40 buffer (10 mm Tris-HCl, 1 mm EDTA and 0.5% Triton X-100) containing protease inhibitors (1% PMSF, Sigma, and 1% protease and phosphatase inhibitor cocktail, Roche). After centrifugation (960 g, 5 min), the soluble nuclear (NE) proteins were also transferred into new tubes containing ice-cold ethanol (1 : 5, HPLC grade) and precipitated overnight at –20 °C.
The precipitated proteins were finally pelleted by centrifugation (5000 g, 30 min, 4 °C), the solution was decanted and the pellet dried under vacuum.

[3] = cytoplasmic fraction, FDR = 0.05, S0 = 0.1
[4] = nuclear fraction, FDR = 0.05, S0 = 0.1

CCC1=C2[O][Os][O]C2(n2cccn2)c2ccccc2C1=O.Cc1ccc(C(C)C)cc1 (stereo not shown) [Compound 2a]
Solubility in PBS [1]: 210 µM
intact complex, UV-vis, 24 h ([2]; 24 h): 85%
intact complex, UV-vis, 96 h ([2]; 96 h): 61%
N° significantly regulated proteins, Total (SW480 cancer cells; CYT and NE): 968
GO BP Cellular response to heat, summed fold-changes (SW480 cancer cells; CYT fraction): 12.51
GO BP Cellular response to oxidative stress, summed fold-changes (SW480 cancer cells; CYT fraction): 2.82
GO BP DNA duplex unwinding, summed fold-changes (SW480 cancer cells; CYT fraction): -6.24
GO BP DNA replication, summed fold-changes (SW480 cancer cells; CYT fraction): -1.08
GO BP Double-strand break repair, summed fold-changes (SW480 cancer cells; CYT fraction): -1.23
GO BP Macroautophagy, summed fold-changes (SW480 cancer cells; CYT fraction): 10.51
GO BP Negative regulation of apoptotic process, summed fold-changes (SW480 cancer cells; CYT fraction): 3.78
GO BP Negative regulation of translation, summed fold-changes (SW480 cancer cells; CYT fraction): -16.92
GO BP Proteasome-mediated ubiquitin-dependent protein catabolic process, summed fold-changes (SW480 cancer cells; CYT fraction): 2.56
GO BP Protein K48-linked ubiquitination, summed fold-changes (SW480 cancer cells; CYT fraction): -5.49
GO BP Protein folding, summed fold-changes (SW480 cancer cells; CYT fraction): 12.25
GO BP Protein transport, summed fold-changes (SW480 cancer cells; CYT fraction): -1.68
GO BP Regulation of mRNA stability, summed fold-changes (SW480 cancer cells; CYT fraction): -7.54
GO BP Response to oxidative stress, summed fold-changes (SW480 cancer cells; CYT fraction): 3.27
GO BP Ribosomal small subunit biogenesis, summed fold-changes (SW480 cancer cells; CYT fraction): -13.81
GO BP Stress granule assembly, summed fold-changes (SW480 cancer cells; CYT fraction): -9.95
GO BP Translation, summed fold-changes (SW480 cancer cells; CYT fraction): -61.19
GO BP mRNA processing, summed fold-changes (SW480 cancer cells; CYT fraction): -0.15
GO BP rRNA processing, summed fold-changes (SW480 cancer cells; CYT fraction): -20.40
GO CC Azurophil granule lumen, summed fold-changes (SW480 cancer cells; CYT fraction): 3.77
GO CC Cell surface, summed fold-changes (SW480 cancer cells; CYT fraction): 0.48
GO CC Centrosome, summed fold-changes (SW480 cancer cells; CYT fraction): -15.78
GO CC Chromosome, telomeric region, summed fold-changes (SW480 cancer cells; CYT fraction): -11.84
GO CC Cytoplasmic stress granule, summed fold-changes (SW480 cancer cells; CYT fraction): -16.41
GO CC Cytosol, summed fold-changes (SW480 cancer cells; CYT fraction): -84.80
GO CC Endoplasmic reticulum, summed fold-changes (SW480 cancer cells; CYT fraction): -28.57
GO CC Extracellular exosome, summed fold-changes (SW480 cancer cells; CYT fraction): -26.34
GO CC Ficolin-1-rich granule lumen, summed fold-changes (SW480 cancer cells; CYT fraction): 8.74
GO CC Focal adhesion, summed fold-changes (SW480 cancer cells; CYT fraction): -17.07
GO CC Intracellular membrane-bounded organelle, summed fold-changes (SW480 cancer cells; CYT fraction): -3.80
GO CC Membrane, summed fold-changes (SW480 cancer cells; CYT fraction): -160.70
GO CC Mitochondrion, summed fold-changes (SW480 cancer cells; CYT fraction): -60.30
GO CC Nucleoplasm, summed fold-changes (SW480 cancer cells; CYT fraction): -4.45
GO CC Nucleus, summed fold-changes (SW480 cancer cells; CYT fraction): -0.98
GO CC Perinuclear region of cytoplasm, summed fold-changes (SW480 cancer cells; CYT fraction): -5.25
GO CC Proteasome complex, summed fold-changes (SW480 cancer cells; CYT fraction): 3.84
GO CC Protein-containing complex, summed fold-changes (SW480 cancer cells; CYT fraction): -12.02
GO CC Ribonucleoprotein complex, summed fold-changes (SW480 cancer cells; CYT fraction): -24.78
GO CC Spliceosomal complex, summed fold-changes (SW480 cancer cells; CYT fraction): -1.04
KEGG pathway Apoptosis, summed fold-changes (SW480 cancer cells; CYT fraction): 5.03
KEGG pathway Cellular senescence, summed fold-changes (SW480 cancer cells; CYT fraction): -0.24
KEGG pathway Ferroptosis, summed fold-changes (SW480 cancer cells; CYT fraction): 5.49
KEGG pathway Proteasome, summed fold-changes (SW480 cancer cells; CYT fraction): 4.95
KEGG pathway Protein processing in endoplasmic reticulum, summed fold-changes (SW480 cancer cells; CYT fraction): 25.89
KEGG pathway RNA degradation, summed fold-changes (SW480 cancer cells; CYT fraction): -8.81
KEGG pathway Ribosome, summed fold-changes (SW480 cancer cells; CYT fraction): -52.73
GO BP Cellular response to heat, summed fold-changes (SW480 cancer cells; NE fraction): 8.73
GO BP Cellular response to oxidative stress, summed fold-changes (SW480 cancer cells; NE fraction): -0.12
GO BP DNA duplex unwinding, summed fold-changes (SW480 cancer cells; NE fraction): -0.60
GO BP DNA replication, summed fold-changes (SW480 cancer cells; NE fraction): -7.21
GO BP Double-strand break repair, summed fold-changes (SW480 cancer cells; NE fraction): -0.87
GO BP Macroautophagy, summed fold-changes (SW480 cancer cells; NE fraction): 4.83
GO BP Negative regulation of apoptotic process, summed fold-changes (SW480 cancer cells; NE fraction): 2.62
GO BP Negative regulation of translation, summed fold-changes (SW480 cancer cells; NE fraction): 1.88
GO BP Proteasome-mediated ubiquitin-dependent protein catabolic process, summed fold-changes (SW480 cancer cells; NE fraction): 45.28
GO BP Protein K48-linked ubiquitination, summed fold-changes (SW480 cancer cells; NE fraction): -1.15
GO BP Protein folding, summed fold-changes (SW480 cancer cells; NE fraction): 2.10
GO BP Protein transport, summed fold-changes (SW480 cancer cells; NE fraction): 1.57
GO BP Regulation of mRNA stability, summed fold-changes (SW480 cancer cells; NE fraction): -0.24
GO BP Response to oxidative stress, summed fold-changes (SW480 cancer cells; NE fraction): -0.72
GO BP Ribosomal small subunit biogenesis, summed fold-changes (SW480 cancer cells; NE fraction): -1.30
GO BP Stress granule assembly, summed fold-changes (SW480 cancer cells; NE fraction): 3.01
GO BP Translation, summed fold-changes (SW480 cancer cells; NE fraction): -4.88
GO BP mRNA processing, summed fold-changes (SW480 cancer cells; NE fraction): 1.71
GO BP rRNA processing, summed fold-changes (SW480 cancer cells; NE fraction): -2.04
GO CC Azurophil granule lumen, summed fold-changes (SW480 cancer cells; NE fraction): -1.14
GO CC Cell surface, summed fold-changes (SW480 cancer cells; NE fraction): 0.76
GO CC Centrosome, summed fold-changes (SW480 cancer cells; NE fraction): 0.70
GO CC Chromosome, telomeric region, summed fold-changes (SW480 cancer cells; NE fraction): -12.89
GO CC Cytoplasmic stress granule, summed fold-changes (SW480 cancer cells; NE fraction): 4.82
GO CC Cytosol, summed fold-changes (SW480 cancer cells; NE fraction): 8.58
GO CC Endoplasmic reticulum, summed fold-changes (SW480 cancer cells; NE fraction): 8.32
GO CC Extracellular exosome, summed fold-changes (SW480 cancer cells; NE fraction): 5.34
GO CC Ficolin-1-rich granule lumen, summed fold-changes (SW480 cancer cells; NE fraction): 23.99
GO CC Focal adhesion, summed fold-changes (SW480 cancer cells; NE fraction): 9.01
GO CC Intracellular membrane-bounded organelle, summed fold-changes (SW480 cancer cells; NE fraction): 8.65
GO CC Membrane, summed fold-changes (SW480 cancer cells; NE fraction): -2.15
GO CC Mitochondrion, summed fold-changes (SW480 cancer cells; NE fraction): -7.86
GO CC Nucleoplasm, summed fold-changes (SW480 cancer cells; NE fraction): 29.04
GO CC Nucleus, summed fold-changes (SW480 cancer cells; NE fraction): 29.16
GO CC Perinuclear region of cytoplasm, summed fold-changes (SW480 cancer cells; NE fraction): 8.90
GO CC Proteasome complex, summed fold-changes (SW480 cancer cells; NE fraction): 37.70
GO CC Protein-containing complex, summed fold-changes (SW480 cancer cells; NE fraction): -3.65
GO CC Ribonucleoprotein complex, summed fold-changes (SW480 cancer cells; NE fraction): 3.30
GO CC Spliceosomal complex, summed fold-changes (SW480 cancer cells; NE fraction): -3.40
KEGG pathway Apoptosis, summed fold-changes (SW480 cancer cells; NE fraction): -0.73
KEGG pathway Cellular senescence, summed fold-changes (SW480 cancer cells; NE fraction): -3.09
KEGG pathway Ferroptosis, summed fold-changes (SW480 cancer cells; NE fraction): 1.80
KEGG pathway Proteasome, summed fold-changes (SW480 cancer cells; NE fraction): 35.64
KEGG pathway Protein processing in endoplasmic reticulum, summed fold-changes (SW480 cancer cells; NE fraction): 19.56
KEGG pathway RNA degradation, summed fold-changes (SW480 cancer cells; NE fraction): -5.97
KEGG pathway Ribosome, summed fold-changes (SW480 cancer cells; NE fraction): -4.75
N° proteins down-regulated, CYT (SW480 cancer cells; [3]): 429
N° proteins upregulated, CYT (SW480 cancer cells; [3]): 202
N° proteins down-regulated, NE (SW480 cancer cells; [4]): 170
N° proteins upregulated, NE (SW480 cancer cells; [4]): 167

Reference: article PMC12320299 (Chemical Science, 2025)
